± gives the expanded uncertainty stated by the source.
Experiments:
[1] = 298.15 K; for surface tension liquid-gas: Wilhelmy plate method; for mass density: 100 kPa, Liquid, Vibrating tube method
[2] = refractive index (Na D-line) (dimensionless); conditions: 298.15 K; 100 kPa; Liquid; Standard Abbe refractometry

Row | Structure (SMILES) | surface tension liquid-gas [1] [mN/m] | mass density [1] [kg/m3] | refractive index [2]
1 | c1ccncc1 [pyridine] | 37.5 ± 0.4 | 978.25 ± 2.3 | 1.5072 ± 0.0006
2 | CCOS(=O)(=O)[O-].CCn1cc[n+](C)c1 [1-ethyl-3-methylimidazolium ethyl sulfate] | 48.4 ± 0.2 | 1234.53 ± 2.2 | 1.4771 ± 0.0005

Next, values leading:

Row | surface tension liquid-gas [1] [mN/m] | mass density [1] [kg/m3] | refractive index [2] | Structure (SMILES)
3 | 51.2 ± 0.3 | 1242.52 ± 2.2 | 1.4962 ± 0.0005 | CCn1cc[n+](C)c1.CS(=O)(=O)[O-] [1-ethyl-3-methylimidazolium methanesulfonate]
4 | 31.7 ± 0.3 | 1058.44 ± 2.4 | 1.5271 ± 0.0006 | c1ccsc1 [thiophene]
5 | 43.5 ± 0.2 | 1097.37 ± 2.2 | 1.5012 ± 0.0005 | CC(=O)[O-].CCn1cc[n+](C)c1 [1-ethyl-3-methylimidazolium acetate]
